Laboratory results reported in patent publication US20240197761A1, “FUCOSYLATION AND IMMUNE MODULATION IN CANCER” (H. LEE MOFFITT CANCER CENTER AND RESEARCH INSTITUTE, INC., priority 2021, published 2024).

Test system: human PBMC-derived, CD3/CD28-activated CD4+T cells
Test: Phosphoproteomic and fuco-proteomic mass spectrometric profiling of CD4+T cells
Assay type: cell-based
Conditions: 250 μM L-fucose, 48 h
Excerpt: FIGS. 14A-14E show Fucosylation of CD4^+T cells affects PKA activity and actin polymerization; and the identification of Integrin P5 as a highly fucosylated protein in activated CD4+ T cells. (a) Top 5 pathways in human CD4^+T cells that are affected by increased fucosylation identified by Ingenuity Pathway Analysis (Qiagen; pathways were identified from phosphoproteomic analyses of CD3/CD28-activated human PBMC-derived CD4^+T cells treated L-fucose (LF) isolated from 3 independent healthy human donors (D1, D2, D3)). (b) (left) Immunoblot of PKA phosphorylated substrates (top) and Ponceau staining (bottom) of human PBMC-derived, CD3/CD28-activated CD4^+T cells that were treated ±250 μM LF±10 μM forskolin (Fkn, a PKA agonist). (right) Densitometric quantification of selected bands (red dashed boxes) normalized to Ponceau staining. (c) Immunoblot of β-actin (top) and Ponceau staining (middle) of human PBMC-derived, CD3/CD28 activated CD4^+T cells were treated ±250 μM LF±25 mM DTSP crosslinker (x-link). (bottom) Densitometric quantification of high molecular weight β-actin oligomers (red dashed boxes) normalized to Ponceau intensity and then normalized to −LF, -x-link samples. (d) Top 5 AAL-bound (fucosylated) proteins in human PBMC-derived, CD3/CD28-activated CD4^+T cells from (a) that were identified by Ingenuity Pathway Analysis (Qiagen). […]

## C[C@H](O)[C@@H](O)[C@@H](O)[C@H](O)C=O [L-fucose]
  Protein Kinase A (PKA) and actin signaling: significantly altering
